Data: patent publication US20050171053A1, “Carrageenan based antimicrobial compositions” (FMC Corporation, priority 2002, published 2005)
Entries after “also recorded” stand apart in the source; their conditions may differ.

Key:
[1] = system: HSV-2; assay: HSV-2/mouse system, formulations with and without LSA; format: in vivo, mice; settings: for effect of addition to the K-II/λ carrageenan composition on efficacy against HSV-2 infection in mice: 5% added
Experimental: LSA-carrageenan was compared to carrageenan in the HSV-2/mouse system in order to determine efficacy in blocking viral infection in vivo.
Each formulation is initially tested in a total of 20 mice. Compounds or formulations that show a blocking effect are assayed again in another 20 mice.
Subsequently, LSA was assayed without Carrageenan to better evaluate its inhibitory properties. LSA was added to the inert thickener, methylcellulose, to maintain the same viscosity that vaginal products (lubricants, spermicides, and microbicides) generally have. (Data shown below.)

[2] = system: HIV; assay: Protection of epithelial cells in vitro against HIV infection; format: cell-based
Source text: FIG. 5 is a plot of the percent inhibition by LSA of viral replication as measured by p24 ELISA.
(§1) LSA is effective as a microbicide against HSV-2 infection, HIV, and other STI's, with or without carrageenan. […] The inhibitory effect may be observed with other enveloped viruses such as the human pathogen, human T cell leukemia virus. In addition, epithelial cells are protected against the human papillomavirus, which is not an enveloped virus. The inhibitory efficaciousness of LSA may thus extend to a broader range of STI's.

[3] = system: human papillomavirus; assay: Protection of epithelial cells against human papillomavirus; format: cell-based
Source text: as §1

[4] = in vivo; cited from earlier work
[5] = system: androgenic, estrogenic and glucocorticoid-like (hepatic glycogen deposition) activity; settings: cited from earlier work
[6] = system: progestational potency; settings: cited from earlier work
[7] = Diffusion of NES through a dialysis membrane (HPLC); format: physicochemical; settings: molecular weight cutoff 1000, HPLC
Source text: FIG. 10 is a graph of the amount of Nestorone released from a composition containing the carrageenans of the present invention.
We examined diffusion of NES through a dialysis membrane with a molecular weight cutoff of 1000. The molecular weight of NES is 370. […] Results are illustrated in FIG. 10. […] However, the rate of diffusion observed through the dialysis membrane cannot be related to the rate of diffusion that would be observed in the human vagina as the rate of diffusion was dependant on the surface area of the dialysis bag. Conditions in the vagina would be different.
Diffusion of NES from CARRA/NES was investigated by two different methods, membrane dialysis and Ultrafree-15 centrifugation. In the membrane dialysis experiments, the membrane cutoff is 1,000, and diffusion of NES was measured by HPLC. […] In the Ultrafree-15 centrifugation experiments, a Millipore, Ultrafree-15 centrifugal filter and tube assembly was employed, which allows the passage of molecules of a MW<500 pass through; NES MW is 370.

[8] = in vivo, po; cited from earlier work
[9] = in vivo, po; cited from earlier work; remark: listed apart in the source

## heparin
[1]
  effect of addition to the K-II/λ carrageenan composition on efficacy against HSV-2 infection in mice: had no effect on efficacy

## dextran sulfate
[1]
  effect of addition to the K-II/λ carrageenan composition on efficacy against HSV-2 infection in mice: had no effect on efficacy

## lignosulfonic acid [LSA]
[1]; concentration of 0.25%
  effectiveness of LSA: highly effective
[1]; mouse, in vivo
  blocking of HSV-2 infection in mice by LSA without carrageenan: more effective than carrageenan; also recorded: effective in protecting
[2]
  protection of epithelial cells against HIV infection: effective in protecting
[3]
  protection of epithelial cells against human papillomavirus: protected

## C=C1C[C@H]2[C@@H]3CCC4=CC(=O)CC[C@@H]4[C@H]3CC[C@]2(C)[C@@]1(OC(C)=O)C(C)=O [NES, 16-methylene-17α-acetoxy-19-norpregn-4-ene-3,20-dione]
[4]
  metabolism upon oral administration: rapid metabolism and inactivation
[5]
  androgenic, estrogenic and glucocorticoid-like activity: lack of androgenic, estrogenic and glucocorticoid-like
[6]
  progestational activity relative to levonorgestrel: 10 times
  progestational activity relative to progesterone: 100 times
[7]
  diffusion of NES through dialysis membrane: diffused from the dialysis bag at a constant rate

## carrageenan
[8]
  toxicity: non-toxic
[9]
  absorption: virtually non-existent
  breakdown in the gastrointestinal tract: minimal at best
